Experiments:
Experiment in all cases: relative viability (nuclei count vs DMSO), 5 days (fraction); higher = more cells survive
[1] = compound: CCC1=CN=CN=C1N2CCN(CC2)CC3=NC4=C(N3)C=C(C=C4)C(F)(F)F + COc1cc2c(Oc3ccc(NC(=O)C4(C(=O)Nc5ccc(F)cc5)CC4)cc3F)ccnc2cc1OCCCN1CCOCC1 [Foretinib] (partner 0.25 µM)
Summary of the method: (§1)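 Lung cancer cell lines, seeded in 1536-well plates, were treated the following day by pin tool with a single drug or with five library-drug doses (not always all listed) in √10 steps on top of a fixed anchor-drug dose. Cells were fixed and nuclei stained in one step after 5 days, and nuclei were counted. Relative viability is the nuclei count for treated wells divided by that for vehicle wells, reported as medians of duplicate plates.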

[2] = compound: CCn1c(-c2nonc2N)nc2cnc(Oc3cccc(NC(=O)c4ccc(OCCN5CCOCC5)cc4)c3)cc21 + Cc1nc(NC(=O)N2CCC[C@H]2C(N)=O)sc1-c1ccnc(C(C)(C)C(F)(F)F)c1 [Alpelisib] (partner 2 µM)
Summary of the method: as §1

[3] = compound: CCn1c(-c2nonc2N)nc2cnc(Oc3cccc(NC(=O)c4ccc(OCCN5CCOCC5)cc4)c3)cc21 + CC1(C)CCC(c2ccc(Cl)cc2)=C(CN2CCN(c3ccc(C(=O)NS(=O)(=O)c4ccc(N[C@H](CCN5CCOCC5)CSc5ccccc5)c(S(=O)(=O)C(F)(F)F)c4)cc3)CC2)C1 [Navitoclax] (partner 0.5 µM)
Summary of the method: as §1

Mirin + Trametinib = compound: N=C1NC(=O)/C(=C/c2ccc(O)cc2)S1 [Mirin] + CC(=O)Nc1cccc(-n2c(=O)n(C3CC3)c(=O)c3c(Nc4ccc(I)cc4F)n(C)c(=O)c(C)c32)c1 [Trametinib] (partner 0.02 µM)
Summary of the method: as §1

Row | Cell Line | relative viability ([1]; first compound 0.04 µM) | relative viability ([1]; first compound 0.1265 µM) | relative viability ([1]; first compound 0.4 µM) | relative viability ([1]; first compound 1.265 µM) | relative viability ([1]; first compound 4 µM) | relative viability ([2]; first compound 0.04 µM) | relative viability ([2]; first compound 0.1265 µM) | relative viability ([2]; first compound 0.4 µM) | relative viability ([2]; first compound 1.265 µM) | relative viability ([2]; first compound 4 µM) | relative viability ([3]; first compound 0.04 µM) | relative viability ([3]; first compound 0.1265 µM) | relative viability ([3]; first compound 0.4 µM) | relative viability ([3]; first compound 1.265 µM) | relative viability ([3]; first compound 4 µM) | relative viability (Mirin + Trametinib; first compound 0.25 µM) | relative viability (Mirin + Trametinib; first compound 0.7906 µM) | relative viability (Mirin + Trametinib; first compound 2.5 µM) | relative viability (Mirin + Trametinib; first compound 7.906 µM) | relative viability (Mirin + Trametinib; first compound 25 µM)
1 | LOU-NH91 | 0.863 | 0.984 | 0.909 | 0.966 | 0.92 | 0.759 | 0.619 | 0.652 | 0.55 | 0.566 | 0.8 | 0.597 | 0.557 | 0.392 | 0.447 | 0.789 | 0.809 | 0.795 | 0.823 | 1.01
2 | LU99A | 0.744 | 0.751 | 0.771 | 0.804 | 0.87 | 0.769 | 0.642 | 0.447 | 0.51 | 0.46 | 0.98 | 0.82 | 0.841 | 0.849 | 0.741 | 0.515 | 0.496 | 0.56 | 0.395 | 0.55
3 | LXF-289 | 1.03 | 0.949 | 0.971 | 0.937 | 0.934 | 1.1 | 1.12 | 1 | 0.96 | 0.941 | 1.05 | 1.05 | 1.09 | 0.991 | 1.06 | 0.694 | 0.726 | 0.635 | 0.665 | 0.828
4 | NCI-H23 | 0.822 | 0.99 | 0.961 | 0.801 | 0.906 | 0.874 | 0.831 | – | 0.604 | 0.495 | 1.18 | 0.956 | – | 0.806 | 0.651 | 0.358 | – | 0.384 | 0.279 | 0.298
5 | NCI-H322M | 1.08 | 0.907 | 0.939 | 0.953 | 0.925 | 0.895 | 0.816 | 0.759 | 0.939 | 0.909 | 1.39 | 1.16 | 1.28 | 1.26 | 1.32 | 0.497 | 0.506 | 0.555 | 0.564 | 0.571
6 | NCI-H441 | 0.96 | 1.07 | 0.938 | 0.884 | 0.993 | 0.688 | 0.834 | 0.68 | 0.599 | 0.44 | 0.745 | 0.653 | 0.481 | 0.323 | 0.508 | 0.528 | 0.404 | 0.428 | 0.557 | 0.508
7 | NCI-H460 | 1.05 | 1.03 | 0.999 | 1.06 | 0.964 | 0.72 | 0.452 | 0.444 | 0.205 | 0.15 | 1.07 | 1.01 | 1.13 | 0.393 | 0.26 | 0.142 | 0.172 | 0.206 | 0.102 | 0.171
8 | NCI-H520 | 0.795 | 0.626 | 0.777 | 0.588 | 0.798 | 1.18 | 0.982 | 0.897 | 0.788 | 0.522 | 1.21 | 1.13 | 0.955 | 0.555 | 0.385 | 0.542 | 0.571 | 0.659 | 0.603 | 0.477

From the supplement of paper PMC10307832
